Results from the supplement of paper PMC10627819.

Columns and labels:
S. aureus Newman = assay: Bliss interaction score (quartile over a dose matrix) (fitness difference); higher = more antagonism (negative = synergy)
Procedure, shortened: (§1)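 Fitness was derived from optical density at entry into stationary phase, divided by the robust mean of the no-drug wells on the same plate. That reading was taken as OD595, and the ratio was capped at 1. Single-drug fitness was inferred from the combination data. The Bliss score, observed fitness minus the expected product of single-drug fitness, was summarised as quartiles over technical, biological and donor/recipient replicates.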

S. pneumoniae D39V [1] = assay: as above
Procedure, shortened: as §1

B. subtilis 168 = assay: as above
Procedure, shortened: as §1

S. aureus DSM 20231 = assay: as above
Procedure, shortened: as §1

S. pneumoniae D39V [2] = assay: fitness (endpoint OD595 vs no drug) (fraction); higher = more growth
Procedure, shortened: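 In 384-well plates at 37 °C, cultures began at OD595 0.01 in 30 µl, with 55 µl used for S. pneumoniae. OD595 readings every 30 min for 14 h were corrected by the first reading. Fitness divides the stationary-phase transition optical density by the robust mean of no-drug control wells. The result is capped at 1.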
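Throughout, for Bliss interaction score (quartile over a dose matrix): first quartile when negative (synergy) and third quartile when positive (antagonism).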

C[C@@H](O)[C@H]1C(=O)N2C(C(=O)O)=C(SCCNC=N)C[C@H]12 [Imipenem] + CN(C)C(=O)C(CCN1CCC(O)(c2ccc(Cl)cc2)CC1)(c1ccccc1)c1ccccc1 [Loperamide]
Conditions | Bliss interaction score
B. subtilis 168 | -0.203
S. aureus DSM 20231 | 0.0662
S. aureus Newman | 0.0304
S. pneumoniae D39V [1] | 0.0901

fitness, S. pneumoniae D39V [2]
Conditions | first compound 0.005 µg/mL | first compound 0.0065 µg/mL | first compound 0.01 µg/mL | first compound 0.013 µg/mL | first compound 0.02 µg/mL | first compound 0.026 µg/mL
partner 17.14 µg/mL | 0.926 | – | 0.937 | – | 0.952 | –
partner 20 µg/mL | – | ≥ 1 | – | ≥ 1 | – | 0.986
partner 34.28 µg/mL | 0.907 | – | 0.947 | – | 0.942 | –
partner 40 µg/mL | – | ≥ 1 | – | ≥ 1 | – | 0.988
partner 80 µg/mL | – | 0.582 | – | 0.582 | – | 0.625

S. pneumoniae D39V [2], partner 68.57 µg/mL, one replicate
Conditions | fitness
first compound 0.005 µg/mL | 0.935
first compound 0.01 µg/mL | 0.93
first compound 0.02 µg/mL | 0.94

O=C1CN(/N=C/c2ccc([N+](=O)[O-])o2)C(=O)N1 [Nitrofurantoin] + CC1=C\[C@@H](O)CC(=O)Cc2nc(co2)C(=O)N2CCC=C2C(=O)O[C@H](C(C)C)[C@H](C)/C=C/C(=O)NC\C=C\1 [Virginiamycin M1]
Conditions | Bliss interaction score
B. subtilis 168 | 0.129
S. aureus DSM 20231 | 0.0559
S. aureus Newman | 0.0574
S. pneumoniae D39V [1] | 0.084

fitness, S. pneumoniae D39V [2]
Conditions | first compound 1.285 µg/mL | first compound 2 µg/mL | first compound 2.57 µg/mL | first compound 4 µg/mL | first compound 8 µg/mL
partner 0.5 µg/mL | 0.99 | – | 0.955 | – | –
partner 1 µg/mL | 0.98 | – | 0.962 | – | –
partner 2 µg/mL | 0.972 | 0.867 | 0.949 | 0.879 | 0.872

fitness, S. pneumoniae D39V [2], one replicate
Conditions | partner 0.15 µg/mL | partner 0.3 µg/mL | partner 0.5 µg/mL | partner 1 µg/mL | partner 2 µg/mL
first compound 2 µg/mL | 0.911 | 0.875 | 0.99 | 0.988 | –
first compound 4 µg/mL | 0.914 | 0.886 | 0.967 | 0.957 | –
first compound 5.14 µg/mL | – | – | 0.917 | 0.972 | ≥ 1
first compound 8 µg/mL | 0.888 | 0.897 | 0.918 | 0.855 | –

CC[C@H]1OC(=O)[C@H](C)[C@@H](O[C@H]2C[C@@](C)(OC)[C@@H](O)[C@H](C)O2)[C@H](C)[C@@H](O[C@@H]2O[C@H](C)C[C@H](N(C)C)[C@H]2O)[C@](C)(OC)C[C@@H](C)C(=O)[C@H](C)[C@@H](O)[C@]1(C)O [Clarithromycin] + COc1ccc(C[C@H](N)C(=O)N[C@H]2[C@@H](O)[C@H](n3cnc4c(N(C)C)ncnc43)O[C@@H]2CO)cc1 [Puromycin]
Conditions | Bliss interaction score
B. subtilis 168 | 0.0559
S. aureus DSM 20231 | 0.0616
S. aureus Newman | -0.0662
S. pneumoniae D39V [1] | -0.0827

fitness, S. pneumoniae D39V [2], one replicate
Conditions | first compound 0.007812 µg/mL | first compound 0.01562 µg/mL | first compound 0.03125 µg/mL | first compound 0.0625 µg/mL | first compound 0.125 µg/mL | first compound 0.25 µg/mL
partner 1 µg/mL | 0.947 | 0.867 | 0.676 | 0.419 | 0.138 | 0.112
partner 2 µg/mL | 0.839 | 0.805 | 0.612 | 0.504 | 0.192 | 0.0762
partner 4 µg/mL | 0.667 | 0.617 | 0.467 | 0.255 | 0.15 | 0.134

fitness, S. pneumoniae D39V [2]
Conditions | first compound 0.07 µg/mL | first compound 0.14 µg/mL | first compound 0.28 µg/mL
partner 1 µg/mL | 0.131 | 0.0877 | 0.11
partner 2 µg/mL | 0.125 | 0.096 | 0.0799
partner 4 µg/mL | 0.12 | 0.122 | 0.0797

O=C(O[C@@H]1Cc2c(O)cc(O)cc2O[C@@H]1c1cc(O)c(O)c(O)c1)c1cc(O)c(O)c(O)c1 [EGCG] + O=C1CN(/N=C/c2ccc([N+](=O)[O-])o2)C(=O)N1 [Nitrofurantoin]
Conditions | Bliss interaction score
B. subtilis 168 | 0.106
S. aureus DSM 20231 | 0.103
S. aureus Newman | 0.0864
S. pneumoniae D39V [1] | 0.0733

fitness, S. pneumoniae D39V [2]
Conditions | partner 1.285 µg/mL | partner 2 µg/mL | partner 2.57 µg/mL | partner 4 µg/mL | partner 8 µg/mL
first compound 12.5 µg/mL | 0.914 | 0.858 | 0.938 | 0.832 | 0.558
first compound 25 µg/mL | 0.949 | 0.878 | 0.924 | 0.891 | 0.571
first compound 50 µg/mL | 0.954 | ≥ 1 | 0.951 | 0.802 | 0.566

S. pneumoniae D39V [2], partner 5.14 µg/mL, one replicate
Conditions | fitness
first compound 12.5 µg/mL | 0.917
first compound 25 µg/mL | 0.901
first compound 50 µg/mL | 0.921

C[C@@H](O)[C@H]1C(=O)N2C(C(=O)O)=C(SCCNC=N)C[C@H]12 [Imipenem] + CC1=C\[C@@H](O)CC(=O)Cc2nc(co2)C(=O)N2CCC=C2C(=O)O[C@H](C(C)C)[C@H](C)/C=C/C(=O)NC\C=C\1 [Virginiamycin M1]
Conditions | Bliss interaction score
B. subtilis 168 | 0.0502
S. aureus DSM 20231 | 0.0515
S. aureus Newman | -0.0199
S. pneumoniae D39V [1] | 0.0822

fitness, S. pneumoniae D39V [2], one replicate
Conditions | partner 0.15 µg/mL | partner 0.3 µg/mL | partner 0.5 µg/mL | partner 1 µg/mL
first compound 0.005 µg/mL | 0.993 | 0.88 | 0.978 | 0.979
first compound 0.01 µg/mL | ≥ 1 | 0.995 | 0.97 | ≥ 1
first compound 0.02 µg/mL | 0.988 | 0.901 | 0.978 | ≥ 1

fitness, S. pneumoniae D39V [2]
Conditions | first compound 0.005 µg/mL | first compound 0.0065 µg/mL | first compound 0.01 µg/mL | first compound 0.013 µg/mL | first compound 0.02 µg/mL | first compound 0.026 µg/mL
partner 0.5 µg/mL | – | 0.992 | – | 0.999 | – | 0.964
partner 1 µg/mL | – | 0.983 | – | ≥ 1 | – | 0.978
partner 2 µg/mL | 0.893 | 0.983 | 0.88 | – | 0.888 | 0.891

CCC[C@@H]1C[C@@H](C(=O)N[C@@H]([C@H]2O[C@H](SC)[C@H](O)[C@@H](O)[C@H]2O)[C@H](C)Cl)N(C)C1 [Clindamycin] + O=C1CN(/N=C/c2ccc([N+](=O)[O-])o2)C(=O)N1 [Nitrofurantoin]
Conditions | Bliss interaction score
B. subtilis 168 | -0.113
S. aureus DSM 20231 | -0.0327
S. aureus Newman | -0.127
S. pneumoniae D39V [1] | -0.173

fitness, S. pneumoniae D39V [2]
Conditions | first compound 0.0125 µg/mL | first compound 0.015 µg/mL | first compound 0.025 µg/mL | first compound 0.03 µg/mL | first compound 0.05 µg/mL | first compound 0.06 µg/mL
partner 1.285 µg/mL | – | 0.848 | – | 0.692 | – | 0.51
partner 2 µg/mL | 0.583 | – | 0.302 | – | 0.0691 | –
partner 2.57 µg/mL | – | 0.886 | – | 0.708 | – | 0.445
partner 4 µg/mL | 0.503 | – | 0.224 | – | 0.0581 | –
partner 8 µg/mL | 0.339 | – | 0.126 | – | 0.0351 | –

S. pneumoniae D39V [2], partner 5.14 µg/mL, one replicate
Conditions | fitness
first compound 0.015 µg/mL | 0.809
first compound 0.03 µg/mL | 0.685
first compound 0.06 µg/mL | 0.319

O=C(O[C@@H]1Cc2c(O)cc(O)cc2O[C@@H]1c1cc(O)c(O)c(O)c1)c1cc(O)c(O)c(O)c1 [EGCG] + CO[C@H]1/C=C/O[C@@]2(C)Oc3c(C)c(O)c4c(O)c(c(/C=N/N5CCN(C)CC5)c(O)c4c3C2=O)NC(=O)/C(C)=C\C=C\[C@H](C)[C@H](O)[C@@H](C)[C@@H](O)[C@@H](C)[C@H](OC(C)=O)[C@@H]1C [Rifampicin]
Conditions | Bliss interaction score
B. subtilis 168 | 0.0434
S. aureus DSM 20231 | -0.0623
S. aureus Newman | -0.0254
S. pneumoniae D39V [1] | -0.0502

fitness, S. pneumoniae D39V [2]
Conditions | first compound 12.5 µg/mL | first compound 25 µg/mL | first compound 50 µg/mL
partner 0.025 µg/mL | 0.923 | 0.925 | ≥ 1
partner 0.05 µg/mL | 0.931 | – | 0.942
partner 0.1 µg/mL | – | – | 0.496

S. pneumoniae D39V [2], partner 0.2 µg/mL, one replicate
Conditions | fitness
first compound 12.5 µg/mL | 0
first compound 25 µg/mL | 0
first compound 50 µg/mL | 0

C[C@@H](O)[C@H]1C(=O)N2C(C(=O)O)=C(SCCNC=N)C[C@H]12 [Imipenem] + Clc1ccc(COC(Cn2ccnc2)c2ccc(Cl)cc2Cl)c(Cl)c1 [Miconazole]
Conditions | Bliss interaction score
B. subtilis 168 | -0.0815
S. aureus DSM 20231 | 0.0412
S. aureus Newman | -0.0307
S. pneumoniae D39V [1] | 0.0759

fitness, S. pneumoniae D39V [2]
Conditions | first compound 0.005 µg/mL | first compound 0.0065 µg/mL | first compound 0.01 µg/mL | first compound 0.013 µg/mL | first compound 0.02 µg/mL | first compound 0.026 µg/mL
partner 1.073 µg/mL | ≥ 1 | – | ≥ 1 | – | ≥ 1 | –
partner 1.25 µg/mL | – | 0.877 | – | 0.869 | – | 0.72
partner 2.145 µg/mL | ≥ 1 | – | 0.998 | – | 0.99 | –
partner 2.5 µg/mL | – | 0.892 | – | 0.907 | – | 0.761
partner 4.29 µg/mL | 0.955 | – | 0.95 | – | 0.882 | –
partner 5 µg/mL | – | 0.908 | – | 0.947 | – | 0.886
